Reference: the supplement of paper PMC12317010
Counter-ions that a name gives are not always drawn.

Test: collision cross section in nitrogen (drift tube, single-field); higher = larger gas-phase ion size
[1] = ion type: [M-H], ion source: ESI, ion mode: Negative
[2] = ion type: [M+Na], ion source: ESI, ion mode: Positive
[3] = ion type: [M+H], ion source: APCI, ion mode: Positive
[4] = ion type: [M+H], ion source: ESI, ion mode: Positive
[5] = ion type: [M+], ion source: APCI, ion mode: Positive
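Note: chemical standards at 10 µM analysed by drift tube IMS-QTOF MS in about 3.95 torr nitrogen, mean of duplicate injections differing ≤1%, mass error below 10 ppm.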

Compound | collision cross section in nitrogen [1] [Å²] | collision cross section in nitrogen [2] [Å²] | collision cross section in nitrogen [3] [Å²] | collision cross section in nitrogen [4] [Å²] | collision cross section in nitrogen [5] [Å²]
CC(C)(C)c1ccc(OC(=O)c2ccccc2O)cc1 [4-tert-Butylphenyl salicylate] | 168.4 |  |  |  | 
O=C(OCCCCCCOC(=O)c1ccccc1)c1ccccc1 [Hexane-1,6-diyl dibenzoate] |  | 189.8 |  |  | 
NS(=O)(=O)c1cc(C(=O)O)c(NCc2ccco2)cc1Cl [Furosemide] | 173 |  |  |  | 
C=CC(=O)OCCOC(=O)CCC(=O)O [Acryloyloxyethyl succinate] |  | 145.9 |  |  | 
O=C(O)c1cccc(Oc2ccccc2)c1 [3-Phenoxybenzoic acid] | 155.6 |  |  |  | 
CCCCOC(=O)N(C)SN(C)C(=O)Oc1cccc2c1OC(C)(C)C2 [Furathiocarb] |  | 195 | 191.3 | 190.5 | 
c1ccc2c(c1)c1cccc3ccc4cccc2c4c31 [Benzo[e]pyrene] |  |  |  |  | 149.7
CSC1=N[C@@](C)(c2ccccc2)C(=O)N1Nc1ccccc1 [Fenamidone] | 174.6 |  | 172.6 | 172.7 | 
Oc1ccc2c(c1)-c1ccccc1C2 [3-Hydroxyfluorene] | 142.4 |  |  |  | 
Cc1ccnc(N)c1 [4-Methylpyridin-2-amine] |  |  | 118.1 | 119.5 | 
Cc1cccc(NC(=S)N(C)C)c1 [Methiuron] | 147.1 |  | 143.1 | 143.3 | 
I [Potassium iodide] | 92.6 |  |  |  | 
O=C(O)C1C2CCC(O2)C1C(=O)O (stereo unspecified) [Endothal] | 135.6 | 140.1 |  |  | 
COCCOCCOCCOCCOCCO [3,6,9,12,15-Pentaoxahexadecanol] |  | 153.3 | 151.8 |  | 
O=C(O)c1cn(-c2ccc(F)cc2)c2cc(N3CCNCC3)c(F)cc2c1=O [Sarafloxacin] |  | 204.8 | 188.2 | 188.3 | 
O=[N+]([O-])O [Nitric acid, calcium salt (2:1)] | 104.5 |  |  |  | 
S=P(N1CC1)(N1CC1)N1CC1 [Thiotepa] |  |  | 132.5 | 132.5 | 
CCCCC[C@H](O)CC(=O)CCc1ccc(O)c(OC)c1 [(6)-Gingerol] | 169.5 | 180.3 |  |  | 
Cc1cc(C)cc(O)c1 [3,5-Dimethylphenol] | 127.3 |  |  |  | 
O=C(O)c1ccc2c(c1)nc(C(=O)NC1CCN(C3CC3)CC1)n2Cc1cc(-c2ccc(Cl)s2)on1 [AVE3247] | 249.7 | 242.2 | 228.1 | 228.8 | 
CC[C@H]1CC[C@H](NCc2cc3c(cc2OC)[C@H]2C[C@H]2C(=O)N3C)[C@H](c2ccccc2)N1 |  | 214.4 | 208.4 | 208.2 | 

Compound | collision cross section in nitrogen [1] [Å²] | collision cross section in nitrogen [2] [Å²] | collision cross section in nitrogen [3] [Å²] | collision cross section in nitrogen [4] [Å²] | collision cross section in nitrogen [5] [Å²]
COc1cnccc1O [4-Hydroxy-3-methoxypyridine] |  |  | 120.7 | 121.8 | 
CON(C)C(=O)Nc1ccc(Cl)c(Cl)c1 [Linuron] | 151.1 |  |  |  | 
Oc1ccc(Cl)cc1 [4-Chlorophenol] | 120.2 |  |  |  | 
C=CCOC(=O)c1ccccc1C(=O)OCC=C [Diallyl phthalate] |  | 159 |  |  | 
CC(C)c1cccc(C(C)C)c1N=C=Nc1c(C(C)C)cccc1C(C)C [Bis(2,6-diisopropylphenyl)carbodiimide] |  |  | 189.6 | 190.5 | 
CC(C)Oc1cccc(NC(=O)c2ccccc2C(F)(F)F)c1 [Flutolanil] | 176.1 | 183.5 | 173.1 | 172.7 | 
O=C1CCCN1C1CCCCC1 [1-Cyclohexylpyrrolidin-2-one] |  | 157.7 | 139.2 | 140.3 | 
O=C1c2cccc(O)c2C(=O)c2c(O)cc(CO)cc21 [Aloe-emodin] | 157.1 |  |  |  | 
CC(=O)CCCCn1c(=O)c2c(ncn2C)n(C)c1=O [3,7-Dihydro-3,7-dimethyl-1-(5-oxohexyl)-1H-Purine-2,6-dione] |  | 172 |  | 160.9 | 
c1ccc2cc3c(ccc4ccccc43)cc2c1 [Benz(a)anthracene] |  |  |  |  | 146.3
O=c1n(CC2CO2)c(=O)n(CC2CO2)c(=O)n1CC1CO1 (stereo unspecified) [Tris(2,3-epoxypropyl)isocyanurate] |  | 163.2 | 158.6 | 160.1 | 
OCCCc1cccnc1 [3-(3-Pyridyl)-1-propanol] |  |  | 128 | 128.4 | 
O=C(O)c1cccc(C(=O)O)c1 [1,3-Benzenedicarboxylic acid] | 133.2 |  |  |  | 
C[C@]12C=CC3=C4CCC(=O)C=C4CC[C@H]3[C@@H]1CC[C@@H]2O [17beta-Trenbolone] | 168.7 | 192.3 | 166.2 | 166.4 | 
Cc1cc(=O)oc2cc(N(C)C)ccc12 [7-(Dimethylamino)-4-methylcoumarin] | 148.6 | 165.6 | 140.9 | 141.3 | 
O=C(O)c1ccccc1C(=O)OCc1ccccc1 [Monobenzyl phthalate] | 160.8 | 157.4 |  |  | 
CCCCCCc1ccc(O)cc1O [4-Hexylresorcinol] | 150.2 |  |  |  | 
CC(c1cc2ccccc2s1)N(O)C(N)=O (stereo unspecified) [Zileuton] |  | 156.4 |  |  | 
CCCOC(=O)CCCCC(=O)OCCC [Dipropyl hexanedioate] |  | 168.6 |  |  | 
Clc1cccc(Cl)c1NC1=NCCN1 [Clonidine hydrochloride] | 145.8 |  | 147.1 | 146.5 | 
CCOC(=O)COc1cc(-n2ncc(C(F)(F)F)c(C)c2=O)c(F)cc1Cl [Flufenpyr-ethyl] | 183.3 | 191.4 |  | 182.1 | 

Compound | collision cross section in nitrogen [1] [Å²] | collision cross section in nitrogen [2] [Å²] | collision cross section in nitrogen [3] [Å²] | collision cross section in nitrogen [4] [Å²] | collision cross section in nitrogen [5] [Å²]
C/C(=N\C#N)N(C)Cc1ccc(Cl)nc1 [Acetamiprid] | 149.1 | 157.7 | 155.1 | 154.6 | 
C=C(C)C(=O)NCCCN(C)C [N-(3-Dimethylaminopropyl)methacrylamide] |  |  | 135.8 | 137.1 | 
CCCCCCc1ccc(N)cc1 [4-Hexylaniline] |  |  | 162.8 | 162.8 | 
C=CCc1cc(S(=O)(=O)c2ccc(O)c(CC=C)c2)ccc1O [4,4'-Sulfonylbis[2-(prop-2-en-1-yl)phenol]] |  | 197.2 |  | 182.5 | 
CCCCCCC(=O)O [Heptanoic acid] | 137.3 |  |  |  | 
CCN(Cc1cccnc1)C(=O)c1cccc(Cl)c1[C@]1(C)C(=O)N(Cc2ccc(OC)cc2OC)c2ccc(Cl)cc21 |  | 233.4 |  | 241.2 | 
O=C(OCC1CCC2OC2C1)C1CCC2OC2C1 (stereo unspecified) [ECC] |  | 158 |  |  | 
CCOC(=O)C1=NN(c2ccccc2)C(=O)C1 [Ethyl 5-oxo-1-phenyl-4,5-dihydro-1H-pyrazole-3-carboxylate] | 155.5 | 164.9 | 154.1 | 154.5 | 
Cc1cc(O)ccc1Cl [4-Chloro-3-methylphenol] | 125.9 |  |  |  | 
CN1C(=CC=O)C(C)(C)c2ccccc21 [1,3-Dihydro-1,3,3-trimethyl-2H-indol-2-ylidene acetaldehyde] |  |  | 144.6 | 145.1 | 143.2
Nc1ccc(N)c2c1C(=O)c1ccccc1C2=O [1,4-Diaminoanthraquinone] | 149.1 |  | 151.4 | 151.5 | 147.5
CC(=O)c1cccnc1 [3-Acetylpyridine] |  |  | 123.6 |  | 
CC1CN(c2cc3c(cc2F)c(=O)c(C(=O)O)cn3-c2ccc(F)cc2F)CCN1 (stereo unspecified) [Temafloxacin] | 209.4 | 211.3 |  | 193 | 
Nc1c(S(=O)(=O)O)cc(Br)c2c1C(=O)c1ccccc1C2=O | 169.4 |  |  |  | 
CCCCCCCCCCCCc1ccc(S(=O)(=O)O)cc1 [Dodecylbenzenesulfonic acid] | 184.8 | 167.4 |  |  | 
CCCCCCOC(=O)c1ccc(O)cc1 [Hexylparaben] | 161.1 |  |  |  | 
CCCCCCCCCCCCCN1CC(C)OC(C)C1 (stereo unspecified) [2,6-Dimethyl-4-tridecylmorpholine] |  |  |  | 183.5 | 
O=c1n(CCCN2CCN(c3cccc(Cl)c3)CC2)nc2ccccn12 [Trazodone hydrochloride] |  | 195.7 | 192.5 | 192 | 
CCCCCCOC(=O)CCCCC(=O)OCCCCCC [Dihexyl hexanedioate] |  | 202.5 |  |  | 
Cc1cc(CCC(=O)OCC(C)(C)C2OCC3(CO2)COC(C(C)(C)COC(=O)CCc2cc(C)c(O)c(C(C)(C)C)c2)OC3)cc(C(C)(C)C)c1O (stereo unspecified) [Sumilizer GA 80] | 268.7 | 261.6 | 268.1 |  | 269.1
CCCCCC[C@@H](O)C/C=C\CCCCCCCC(=O)OCC(O)CO (stereo partly specified) [Glyceryl monoricinoleate] |  | 201.9 |  |  | 
